Measurements as given in US9133170B2, “Inhibitors of HCV NS5A” (priority 2011, dated 2015).

system: GT-1a pRLuc H77 1b 75 S/I subgenomic replicon cell line; assay: HCV GT-1a subgenomic replicon Renilla luciferase reporter assay; format: cell-based; settings: Hepatitis C virus, GT1A, Huh-7, 72 h, read-out: GT-1a-IC50
Source text: Determination of compounds HCV GT1b inhibitory replicon activity using the replicon luciferase reporter assay
The 2209-23 cell line was developed at Roche by stable transfection of the hepatoma cell line Huh-7 with a GT-1b Con1 subgenomic bicistronic replicon as previously described. Subgenomic replicon cell line was established in cured Huh7 cells, obtained from R. Bartenschlager (J Virol. 2003 March; 77 (5):3007-19) The GT-1a H77 subgenomic replicon vector pRLuc H77 1b 75 S/I, was created by replacing the non structural region of the GT-1b Con1 subgenomic replicon by the one of the H77 strain, except for the first 75 amino acids of the NS3 protein that are from GT-1b Con1 strain. (J Virol. 2001 77:5352-59) The GT-1a pRLuc H77 1b 75 S/I subgenomic replicon cell line was established in cured Huh7 cells, obtained from R. Bartenschlager (J Virol. 2003 March; 77 (5):3007-19).
All the subgenomic replicon cell lines were cultured in Dulbecco's Modified Eagle Medium (DMEM-Glutamax™-I; Invitrogen Cat #10569-010). The medium was supplemented with 10% Fetal Bovine Serum (Invitrogen Cat #10082-147), 1% penicillin/streptomycin (Mediatech Cat # 30-002-CI) and 500 μg/ml of G418 (Mediatech Cat #30-234-CI). Cells were maintained at 37° C. in a humidified 5% CO2 atmosphere.
2209-23 cells were plated at a cell density of 5000 cells per well in 96 well plates (Becton Dickinson, Cat #35 3296). Cells were plated in 90 μl of Dulbecco's Modified Eagle Medium (DMEM-Glutamax™-I), (Invitrogen Cat #10569-010) medium was supplemented with 5% Fetal Bovine Serum (Invitrogen Cat #10082-147), 1% penicillin/streptomycin (Mediatech Cat #30-002-CI). The pRluc H77 1b 75 S/I cells were plated in 96-well plate at 3000 cells/well in DMEM-Glutamax™-I containing 5% FBS and 1% penicillin/streptomycin in 90 μl final volume. Cells were allowed to equilibrate for 24 hours at 37° C. and 5% CO2 at which time compounds were added. Compounds (or medium as a control) were added 24 hours post-plating in 3 fold dilutions at a final DMSO concentration of 1% in 10 ul volume. Renilla luciferase reporter signal was read 72 hours after addition of compounds using the Renilla Luciferase Assay System (Promega, cat #E2820). EC50 values were defined as the compound concentration at which a 50% reduction in the levels of renilla luciferase reporter was observed as compared to control samples in the absence of compound and was determined by non-linear fitting of compound dose-response data. The EC50 was approximated if maximum percentage inhibition was less than 90% and more than 70%.

Row | Compound | IC50 [nM]
1 | COC(=O)N[C@H]1CCc2cccc3c2N(C1=O)[C@H](C(=O)N1CCC[C@H]1C(=O)Nc1ccc(-c2ccc(-c4cnc([C@@H]5CCCN5C(=O)[C@@H](NC(=O)OC)C(C)C)[nH]4)cc2)cc1)C3 [Compound I-1, {(2S,5S)-2-[(S)-2-(4′-{2-[(S)-1-((S)-2-Methoxycarbonylamino-3-methyl-butyryl)-pyrrolidin-2-yl]-3H-imidazol-4-yl}-biphenyl-4-ylcarbamoyl)-pyrrolidine-1-carbonyl]-4-oxo-1,2,4,5,6,7-hexahydro-azepino[3,2,1-hi]indol-5-yl}-carbamic acid methyl ester] | 8.38
2 | COC(=O)N[C@H]1CCC(=O)N2CCC[C@@H](C(=O)N3CCC[C@H]3C(=O)Nc3ccc(-c4ccc(-c5cnc([C@@H]6CCCN6C(=O)[C@@H](NC(=O)OC)C(C)C)[nH]5)cc4)cc3)N2C1=O [Compound I-2, {(4S,7S)-4-[(S)-2-(4′-{2-[(S)-1-((S)-2-Methoxycarbonylamino-3-methyl-butyryl)-pyrrolidin-2-yl]-3H-imidazol-4-yl}-biphenyl-4-ylcarbamoyl)-pyrrolidine-1-carbonyl]-6,10-dioxo-octahydro-pyridazino[1,2-a][1,2]diazepin-7-yl}-carbamic acid methyl ester] | 190
3 | COC(=O)N[C@H]1CCc2cccc3c2N(C1=O)[C@H](C(=O)N1CCC[C@H]1C(=O)Nc1ccc(-c2ccc(-c4cnc([C@@H]5CC(F)(F)CN5C(=O)[C@@H](NC(=O)OC)C(C)C)[nH]4)cc2)cc1)C3 [Compound I-3, {(2S,5S)-2-[(S)-2-(4′-{2-[(S)-1-((S)-2-Methoxycarbonylamino-3-methyl-butyryl)-4,4-difluoropyrrolidin-2-yl]-3H-imidazol-4-yl}-biphenyl-4-ylcarbamoyl)-pyrrolidine-1-carbonyl]-4-oxo-1,2,4,5,6,7-hexahydro-azepino[3,2,1-hi]indol-5-yl}-carbamic acid methyl ester] | 147
4 | COC(=O)N[C@H]1CCc2cccc3c2N(C1=O)[C@H](C(=O)N1CCC[C@H]1C(=O)Nc1ccc(-c2ccc(-c4[nH]c([C@@H]5CCCN5C(=O)[C@@H](NC(=O)OC)C(C)C)nc4Cl)cc2)cc1)C3 [Compound I-4, {(2S,5S)-2-[(S)-2-(4′-{5-Chloro-2-[(S)-1-((S)-2-methoxycarbonylamino-3-methyl-butyryl)-pyrrolidin-2-yl]-3H-imidazol-4-yl}-biphenyl-4-ylcarbamoyl)-pyrrolidine-1-carbonyl]-4-oxo-1,2,4,5,6,7-hexahydro-azepino[3,2,1-hi]indol-5-yl}-carbamic acid methyl ester] | 1.38
5 | COC(=O)N[C@H](C(=O)N1CCC[C@H]1C(=O)N1CCC[C@H]1C(=O)Nc1ccc(-c2ccc(-c3cnc([C@@H]4CCCN4C(=O)[C@@H](NC(=O)OC)C(C)C)[nH]3)cc2)cc1)C(C)C [Compound I-5, ((S)-1-{(S)-2-[(S)-2-(4′-{2-[(S)-1-((S)-2-Methoxycarbonylamino-3-methyl-butyryl)-pyrrolidin-2-yl]-3H-imidazol-4-yl}-biphenyl-4-ylcarbamoyl)-pyrrolidine-1-carbonyl]-pyrrolidine-1-carbonyl}-2-methyl-propyl)-carbamic acid methyl ester] | 4.87
6 | COC(=O)N[C@H](C(=O)N1CCC[C@H]1c1ncc(-c2ccc(-c3ccc(NC(=O)[C@@H]4CCCN4C(=O)[C@@H]4CCCN4C(=O)[C@H](NC(=O)OC)c4ccccc4)cc3)cc2)[nH]1)C(C)C [Compound I-6, [(S)-1-((S)-2-{5-[4′-({(S)-1-[(S)-1-((R)-2-Methoxycarbonylamino-2-phenyl-acetyl)-pyrrolidine-2-carbonyl]-pyrrolidine-2-carbonyl}-amino)-biphenyl-4-yl]-1H-imidazol-2-yl}-pyrrolidine-1-carbonyl)-2-methyl-propyl]-carbamic acid methyl ester] | 69.9
